Reference: US7425532B2, “Use of alanyl aminopeptidase inhibitors and pharmaceutical compositions containing said inhibitors” (IMTM GmbH, priority 2002, dated 2008)

Assays:
[1] = tested on: human regulatory T-lymphocytes (CD4+CD25+); experiment: Gene expression of TGF-β1 (TGF-β1-mRNA) in human regulatory T-lymphocytes, quantitative RT-PCR; assay type: cell-based; settings: PHA/PMA plus inhibitor
Experimental: Induction of the Gene Expression of TGF-β1 in Human Regulatory T-Lymphocytes (CD4^+CD25^+) After an Incubation with the Inhibitor Phebestin
(§1) The T-cells were incubated for 24 h without adding (control), with adding PHA and PMA or with simultaneously adding PHA/PMA and phebestin. PHA (phythemagglutinine) and PMA (phorbol myristate acetate) were used as mito-gens and agents stimulating the proliferation. Subsequently, the content of TGF-β1-mRNA was determined by quantitative RT-PCR and using the i-cycler.
Induction of the Gene Expression of TGF-β1 in Human Regulatory T-Lymphocytes (CD4^+CD25^+) after an incubation with the inhibitor PAQ-22
as §1, with “PMA and” for “PMA or”, “and PAQ-22.” for “and phebestin.”
Induction of the Gene Expression of TGF-β1 in Human Regulatory T-Lymphocytes (CD4^+CD25^+) After an Incubation with the Aminopeptidase Inhibitor RB3014
as §1, with “for 72” for “for 24”, “PMA and” for “PMA or”, “and RB3014.” for “and phebestin.”

[2] = tested on: human regulatory T-lymphocytes (CD4+CD25+); experiment: Surface expression of TGF-β1 on human regulatory T-lymphocytes, flow cytometry with anti-TGF-β1 antibody; assay type: cell-based; settings: 24 h incubation, PHA/PMA plus inhibitor; results only in FIG. 1
Experimental: Induction of the Surface Expression of TGF-β1 on Human Regulatory T-Lymphocytes (CD4^+CD25^+) After Incubation with the Inhibitor Phebestin
The T-cells were incubated for 24 h without adding (control), with adding PHA and PMA and with simultaneously adding PHA/PMA and phebestin. PHA (phythemagglutinine) and PMA (phorbol myristate acetate) were used as mito-gens and agents stimulating the proliferation. Subsequently, the surface expression of TGF-β1 was measured by flow cytometry using a commercially available polyclonal anti-TGF-β1 antibody (chicken anti-human; R & D Systems).

[3] = 24 h incubation, results only in FIG. 2, FIG. 3

| Compound | gene expression of TGF-β1 (content of TGF-β1-mRNA) [1, 3] | surface expression of TGF-β1 [2] | gene expression of TGF-β1 (content of TGF-β1-mRNA) ([1]; 72 h incubation, results only in FIG. 4) |
| --- | --- | --- | --- |
| CCc1cccc(CC)c1-n1c(=O)[nH]c2ccccc2c1=O [PAQ-22] | Induction |  |  |
| CC(C)[C@H](NC(=O)[C@@H](O)[C@H](N)Cc1ccccc1)C(=O)N[C@@H](Cc1ccccc1)C(=O)O [Phebestin, phebestin] | Induction | Induction |  |
| CC(N)P(=O)(O)CC(Cc1ccccc1)C(=O)NC(Cc1ccccc1)C(=O)O (stereo not shown) [RB3014] |  |  | Induction |
